Test results reported in PubChem BioAssay AID256 (DTP/NCI, 2004).
Toxic doses and inconclusive results are not listed. Rule for the calls: active = survival T/C of 150% or more; inactive = T/C below 125% in these data.

Test system: CD2F1 mice, L1210 leukemia ip, survival T/C
Test: NCI In Vivo Anticancer Drug Screen. Data for tumor model L1210 Leukemia (intraperitoneal) in CD2F1 (CDF1) mice
Conditions: higher = longer survival
Summary of the method: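 Implant tumor; dose compound or vehicle; measure endpoint in both groups; report treated divided by control.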

[1] = endpoint: mean survival time, dose: 100.0 mg/kg/injection, schedule: Q01DX009 (ip), vehicle: saline with Tween-80
[2] = endpoint: mean survival time, dose: 100.0 mg/kg/injection, schedule: Q04DX003 (ip), vehicle: saline with Tween-80
[3] = endpoint: mean survival time, dose: 200.0 mg/kg/injection, schedule: Q01DX009 (ip), vehicle: saline with Tween-80
[4] = endpoint: mean survival time, dose: 200.0 mg/kg/injection, schedule: Q04DX003 (ip), vehicle: saline with Tween-80
[5] = endpoint: mean survival time, dose: 400.0 mg/kg/injection, schedule: Q04DX003 (ip), vehicle: saline with Tween-80
[6] = endpoint: mean survival time, dose: 100.0 mg/kg/injection, schedule: Q01DX001 (ip), vehicle: saline with Tween-80
[7] = endpoint: mean survival time, dose: 200.0 mg/kg/injection, schedule: Q01DX001 (ip), vehicle: saline with Tween-80
[8] = endpoint: mean survival time, dose: 400.0 mg/kg/injection, schedule: Q01DX001 (ip), vehicle: saline with Tween-80

Measured: T/C

O[O][Sn][c]1ccccc1
inactive: endpoint: mean survival time, dose: 50.0 mg/kg/injection, schedule: Q01DX009 (ip), vehicle: saline with Tween-80 93 % of control | [1] 89 % of control | [2] 100 % of control | [3] 91 % of control | [4] 97 % of control

N#CSC/C(=N\Nc1ccc([N+](=O)[O-])cc1[N+](=O)[O-])c1ccccc1
inactive: endpoint: mean survival time, dose: 100.0 mg/kg/injection, schedule: Q04DX003 (ip), vehicle: saline sonified 103 % of control | endpoint: mean survival time, dose: 200.0 mg/kg/injection, schedule: Q04DX003 (ip), vehicle: saline sonified 102 % of control | endpoint: mean survival time, dose: 400.0 mg/kg/injection, schedule: Q04DX003 (ip), vehicle: saline sonified 103 % of control

CC1(C)CC2(OC2c2ccccc2[N+](=O)[O-])C(=O)c2ccccc21 (stereo not drawn)
inactive: [1] 98 % of control | [2] 96 % of control | [3] 96 % of control | [4] 98 % of control | endpoint: mean survival time, dose: 400.0 mg/kg/injection, schedule: Q01DX009 (ip), vehicle: saline with Tween-80 96 % of control | [5] 91 % of control

CCC(CCC(C)C1CCC2C3CC=C4CC(I)CCC4(C)C3CCC12C)C(C)C (stereo not drawn)
inactive: [6] 90 % of control | [7] 90 % of control | [8] 94 % of control

OC1=C2CCCCCC2=[N+]2CCCCC2C1 (stereo not drawn)
inactive: [2] 95 % of control | [4] 95 % of control

Cc1ccc(C2OC2C(=O)c2ccccc2)cc1 (stereo not drawn)
inactive: endpoint: mean survival time, dose: 50.0 mg/kg/injection, schedule: Q04DX002 (ip), vehicle: saline with Tween-80 95 % of control | [6] 94 % of control | endpoint: mean survival time, dose: 100.0 mg/kg/injection, schedule: Q04DX002 (ip), vehicle: saline with Tween-80 91 % of control | [7] 92 % of control | [8] 94 % of control

CCN(CC)N=Nc1ccccc1
inactive: endpoint: mean survival time, dose: 75.0 mg/kg/injection, schedule: Q01DX001 (ip), vehicle: saline 114 % of control

CC#CCOCC(O)CO (stereo not drawn)
inactive: endpoint: mean survival time, dose: 25.0 mg/kg/injection, schedule: Q01DX009 (ip), vehicle: water 98 % of control | endpoint: mean survival time, dose: 50.0 mg/kg/injection, schedule: Q01DX009 (ip), vehicle: water 107 % of control | endpoint: mean survival time, dose: 100.0 mg/kg/injection, schedule: Q01DX009 (ip), vehicle: water 104 % of control | endpoint: mean survival time, dose: 200.0 mg/kg/injection, schedule: Q01DX009 (ip), vehicle: water 115 % of control

C1N2CN3CN1CN(C2)C3.[Cl][Pt+2][Cl]
inactive: endpoint: mean survival time, dose: 18.75 mg/kg/injection, schedule: Q04DX003 (ip), vehicle: saline 103 % of control | endpoint: mean survival time, dose: 37.5 mg/kg/injection, schedule: Q04DX003 (ip), vehicle: saline 106 % of control | endpoint: mean survival time, dose: 75.0 mg/kg/injection, schedule: Q04DX003 (ip), vehicle: saline 101 % of control | endpoint: mean survival time, dose: 150.0 mg/kg/injection, schedule: Q04DX003 (ip), vehicle: saline 107 % of control | endpoint: mean survival time, dose: 300.0 mg/kg/injection, schedule: Q04DX003 (ip), vehicle: saline 103 % of control

COC(=O)c1ccccc1C=C(c1ccc([N+](=O)[O-])cc1)c1ccc([N+](=O)[O-])cc1
inactive: [1] 93 % of control | [2] 94 % of control | [3] 93 % of control | [4] 96 % of control | [5] 88 % of control

COC(=O)c1ncn(C2OC(CO)C(O)C2O)n1 (stereo not drawn)
inactive: endpoint: median survival time, dose: 8.75 mg/kg/injection, schedule: Q01DX005 (ip), vehicle: water 100 % of control | endpoint: median survival time, dose: 17.5 mg/kg/injection, schedule: Q01DX005 (ip), vehicle: water 96 % of control | endpoint: median survival time, dose: 35.0 mg/kg/injection, schedule: Q01DX005 (ip), vehicle: water 97 % of control | endpoint: median survival time, dose: 70.0 mg/kg/injection, schedule: Q01DX005 (ip), vehicle: water 97 % of control | endpoint: median survival time, dose: 140.0 mg/kg/injection, schedule: Q01DX005 (ip), vehicle: water 100 % of control

O=[N+]([O-])c1ccc(Nc2cccc(Cl)c2)c([N+](=O)[O-])c1
inactive: [4] 87 % of control

NC1=NC(CCc2ccccc2)N(c2ccc3ccccc3c2)C(N)=N1 (stereo not drawn)
inactive: endpoint: mean survival time, dose: 4.7 mg/kg/injection, schedule: Q04DX003 (ip), vehicle: saline 104 % of control | endpoint: mean survival time, dose: 9.4 mg/kg/injection, schedule: Q04DX003 (ip), vehicle: saline 100 % of control | endpoint: mean survival time, dose: 18.8 mg/kg/injection, schedule: Q04DX003 (ip), vehicle: saline 100 % of control
